Results: patent US4629782A, “Crystalline form of N-acetylmuramyl-L-α-aminobutyryl-D-isoglutamine” (Syntex (U.S.A.) Inc., priority 1984, dated 1986)

What was measured:
[1] = Hygroscopicity, visual comparison at 76% relative humidity and ambient temperature; type: physicochemical; conditions: 76% relative humidity, ambient temperature, visual observation
Text: The crystalline monohydrate of this invention is less hygroscopic than amorphous ABU-MDP. This is readily observed by visually comparing samples of each in separate containers at 76% relative humidity and ambient temperature.

[2] = Thermogravimetric analysis (TGA) after vacuum drying and exposure to air; type: physicochemical; conditions: dried under house vacuum 12 hours, exposed to air about 3 hours; 1.5% initial weight loss attributed to surface water
Experimental: The mole ratio of water to ABU-MDP in the crystalline monohydrate of formula (1) was determined by thermogravimetric analysis (TGA). A small amount of the monohydrate prepared in accordance with Example II was dried under "house" vacuum for 12 hours and then exposed to air for about 3 hours. […] This analysis was conducted with a Perkin Elmer TGS-2 thermogravimetric balance. The heating rate was 2.5° C. per minute from 40° C. to 160° C. A dry nitrogen purge was maintained throughout each run.

Hygroscopicity indicated by TGA [2]	Substance	Hygroscopicity: physical state on exposure to humidity [1]
–	N-acetylmuramyl-L-α-aminobutyryl-D-isoglutamine [Amorphous ABU-MDP, reference compound]	turns into a syrupy solution within about an hour
slightly hygroscopic	acetylmuramyl-L-α-aminobutyryl-D-isoglutamine monohydrate [Crystalline monohydrate]	remains a solid
